Row | melting point [°C] | SMILES
1 | 123 to 125 | CN(C)[C@H]1CC[C@@H](C(=O)N2CCC(c3[nH]nc4c3C(=O)c3c(NC(=O)NN5CCOCC5)cccc3-4)CC2)CC1
2 | > 380 | O=C(O)c1cc2sccc2nc1C(=O)O
3 | 158 to 159 | CCOC(=O)COc1ccc(CN2C(=O)C3(COc4cc5c(cc43)CCO5)c3ccccc32)cc1 (stereo not given)
4 | 180 to 182 | NS(=O)(=O)c1ccc(-n2nc(C(F)(F)F)c(Cl)c2-c2ccc(Cl)cc2)cc1
5 | 174 to 175 | Cc1c(-c2ccccc2)n(Cc2ccccc2)c2ccc(-c3ccc(OCC(=O)O)cc3)cc12
6 | 248 | COc1cc(CC(=O)Nc2ccc(C3CN(C(=O)c4ccccc4)CC3C(=O)O)cc2)ccc1NC(=O)Nc1ccccc1C (stereo not given)
7 | 65 to 69 | Nn1cccc1C(=O)c1ccccc1
8 | 113 to 117 | CCOC(=O)c1cc(SC(F)F)c(-c2ccc(Cl)cc2)[nH]1
9 | 146 | CCNC(=O)c1nc(Cl)c(Cl)[nH]1
10 | 101 to 102 | O=[N+]([O-])c1cccc(-n2ccnc2)c1
11 | 61 to 62 | CCOC(=O)CCN=c1sc2ccccc2s1
12 | 270 | Nc1nc2ccccc2n1-c1cccc(-n2c(N)nc3ccccc32)c1
13 | 253 to 254 | NC(=O)CN1C(=O)OCc2cc(Br)ccc21
14 | 294 to 296 | CN1Cc2c(C(N)=O)ncn2-c2ccsc2C1=O
15 | 87 to 90 | COC(=O)c1c(C)cc(OC)c(C)c1O
16 | 47 to 48 | COC(=O)CCCCCCC(C(=O)OC)S(C)(=O)=O (stereo not given)
17 | 153 to 158 | ON=C(CCC1CCN(Cc2ccccc2)CC1)c1ccc(N2CCCC2)cc1
18 | 145 to 147 | CCOC(=O)n1c(SCc2nccc(SCCN3CCOCC3)c2C)nc2ccccc21

Row | melting point [°C] | SMILES
19 | 111 to 113 | CCCOc1ccc(-c2csc(-c3ccccc3Cl)c2CC(=O)N=C(N)N)cc1
20 | 147 to 148 | N#CCCCN1CCN(c2nc3nccc(-c4ccncc4)n3n2)CC1
21 | 99 to 101 | O=C(O)CCCCc1cc(O)c(O)c(Cl)c1
22 | 143 to 144 | COc1ccc(NC(=O)Cn2c3c(c4c(Cl)c(Cl)ccc42)CCN(C(=O)OC(C)(C)C)CC3)cc1
23 | 118 to 120 | COc1cc(C(=O)c2ccccc2F)ccc1OCc1ccccc1
24 | 126 to 128 | CC(C)n1cc(-c2cnc3c(c2)nnn3Cc2ccc3ncccc3c2)cn1
25 | 129 | O=C(NCC1CCN(CC2(C(=O)O)CCOCC2)CC1)N1C(=O)C2(CCCC2)c2ccc(F)cc21
26 | 119 to 121 | COc1c(C(C)(C)C)cc(C=C2CCON(C)C2=O)cc1C(C)(C)C
27 | 140 to 142 | COc1ccc(S(=O)(=O)N2CCc3cccc(-c4ccc(F)nc4)c32)cc1
28 | 128 to 130 | O=C1c2ccccc2-c2c1c1ccccc1c(=O)n2CCCCCCCCCCNS(=O)(=O)c1ccccc1
29 | 136 to 138 | Nc1cc(S(N)(=O)=O)ccc1S(=O)(=O)CCCO
30 | 63 to 65 | Cn1nnnc1-c1cccc(CCl)c1
31 | 285 to 286 | O=C(NC1CCCCCC1)c1cccc(C(=O)NC2CCCCCC2)c1
32 | 97 to 99 | C=Cc1ccc(CSCCNC(=S)CCC(=O)O)cc1
33 | 111 to 113 | COc1ccc(Cc2oc3c(c2C)C(=O)C(C)=C(C)C3=O)cc1
34 | 76.5 to 79 | CCOC(=O)C1CCc2c(c(C)nn2C)C1=O (stereo not given)
35 | 104 to 109 | CC(O)C1C(=O)N2C(C(=O)OCc3ccccc3)=C(S(=O)c3ccccc3)CC12 (stereo not given)
36 | 139 to 140 | N#Cc1ccc(OCc2ccc3c(c2)OCO3)cc1F

Row | SMILES | melting point [°C]
37 | CCC1=Cc2cc3c(cc2C(c2ccc([N+](=O)[O-])cc2)=NN1C(C)=O)OCO3 | 132 to 134
38 | C=CCN(C)C1(C#N)CCC2(CC1)OCCO2 | 47 to 50
39 | C=Cc1ncn2c1[C@@H]1CCN1C(=O)c1c(Cl)cccc1-2 | 171 to 172
40 | O=C(NCCO[N+](=O)[O-])c1ccco1 | 88 to 89
